Laboratory results from patent US20220184081A1, “ANTIPRURITIC AGENT USING PAC1 RECEPTOR ANTAGONIST” (KAGOSHIMA UNIVERSITY, priority 2019, published 2022).

Experiments:
[1] = system: Compound 48/80-induced itch behavior in mice; assay: Itch behavior induced by Compound 48/80 intradermal administration; format: in vivo, mouse; details: intrathecal pre-administration (i.t., 10 minutes before i.d.), 1 nmol; Compound 48/80 100 μg/10 μL; FIG. 11
Method: Compound 48/80 (100 μg/10 μL) was intradermally injected into the waist of each mouse (intradermal injection, i.d.). The reaction of biting, licking or scratching the injected site was defined as itch behavior, and the behavioral time was counted every 5 minutes. […] DMSO (10% solution, dissolved in normal saline) is a solvent for PA-8 or PA-9.

mouse VPAC1 receptor = biological target: T1, mouse VPAC1 receptor (Mus musculus, UniProt P97751); assay: CREB phosphorylation by PACAP stimulus, Western blot, VPAC1/CHO cells; format: cell-based; details: PA-8 10 pM to 10 nM, FIG. 4B
T1 construct: expressed in transfected cells; host or cells: CHO cells
T1 sequence (P97751 31-459): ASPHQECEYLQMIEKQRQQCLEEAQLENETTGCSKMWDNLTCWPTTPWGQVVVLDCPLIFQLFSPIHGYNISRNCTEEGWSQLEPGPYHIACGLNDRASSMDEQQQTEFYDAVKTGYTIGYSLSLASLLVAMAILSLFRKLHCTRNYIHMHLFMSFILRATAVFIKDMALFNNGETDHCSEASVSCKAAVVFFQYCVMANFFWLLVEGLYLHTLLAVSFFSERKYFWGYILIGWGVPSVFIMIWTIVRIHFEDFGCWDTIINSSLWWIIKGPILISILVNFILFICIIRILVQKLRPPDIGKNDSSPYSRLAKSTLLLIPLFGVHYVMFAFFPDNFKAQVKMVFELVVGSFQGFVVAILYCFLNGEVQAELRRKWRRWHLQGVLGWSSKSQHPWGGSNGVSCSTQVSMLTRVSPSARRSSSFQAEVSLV
Method: The effect of each compound on the phosphorylation of CREB (cAMP-responsive element-binding protein) produced by a PACAP stimulus was examined by Western blot analysis using an anti-phosphorylated CREB (pCREB) antibody with a mouse PAC1 receptor-expressing CHO cells (PAC1/CHO cells) and a mouse VPAC1 receptor-expressing CHO cells (VPAC1/CHO cells).
Specifically, treatment with a compound (PA-8, compound 2j and compound 2o) at 10 pM to 10 nM or a solvent therefor, DMSO (VEH: 0.1% DMSO-containing phosphate buffer solution) was performed for 30 minutes, 1 nM PACAP was then added, and protein was recovered within 30 minutes after a PACAP stimulus.

[2] = system: serotonin (5-HT)-induced itch mouse model; assay: Serotonin (5-HT)-induced itch mouse model; format: in vivo; details: intrathecal pre-administration 30 minutes before 5-HT 50 nmol i.d.; PA-8 0.1 or 1 nmol; P6-38 100 pmol; FIG. 1
Method: 5-HT (50 nmol, 10 μL) was intradermally injected into the waist of each mouse (intradermal injection, i.d.). The reaction of the mice to bite, lick or scratch the injected site was defined as an itch behavior, and the action time was measured every 5 minutes. […] SLN indicates the effects obtained in the case of administering normal saline instead of 5-HT. ACSF is an abbreviation of an artificial cerebrospinal fluid, which was a solvent for P6-38 and PA-8.

psoriasis mouse model = assay: Psoriasis mouse model (imiquimod); format: in vivo, ICR mice; details: 30 mg/kg p.o. 30 minutes before 1 hour video observation; FIG. 14
Method: The present test was carried out with reference to the method of van der Fits et al. that is a test system published as a method for evaluating itch in animals (van der Fits L., Mounts S., Voerman J S A., et al.: Imiquimod-Induced Psoriasis-Like Skin Inflammation in Mice Is Mediated via the IL-23/IL-17 Axis, J. Immunol., 182, 5836-5845, 2009).
Five-week-old ICR mice (20 mice) were each placed in a cage, and were then conditioned for 1 week. Thereafter, three days before initiation of the test, the waist of each mouse was shaved. Then, 62.5 mg of commercially available imiquimod cream (5% Beselna Cream; MOCHIDA PHARMACEUTICAL CO., LTD.) was applied onto the shaved waist skin of the mice once a day for 5 days, so as to produce imiquimod-induced psoriasis model. Twenty-four hours after the final application of the cream (Day 5), video observation was carried out for 1 hour. The shaved 20 mice were divided into 5 groups (4 mice per group), namely, a 30 mg/kg PA-8 oral (p.o.) administration group, a 30 mg/kg compound 2o oral (p.o.) administration group, a 30 mg/kg PA-9 oral (p.o.) administration group, a 30 mg/kg compound 3d (p.o.) administration group, and a solvent administration group (VEH: oral administration of 10% DMSO aqueous solution). Oral administration was carried out 30 minutes before initiation of the video observation.

[3] = system: PACAP-induced itch behavior in mice; assay: Itch behavior induced by PACAP intradermal administration; format: in vivo, mouse; details: simultaneous intradermal administration with PACAP, 0.01 to 1 nmol; FIG. 7A, 8, 9
Text: SLN indicates intradermal administration of normal saline. DMSO (10% solution, dissolved in normal saline) is a solvent for PA-8.
SLN indicates intradermal administration of normal saline. VEH (10% DMSO solution, dissolved in normal saline) is a solvent for PA-8 and the compound 2o.
SLN indicates intradermal administration of normal saline. VEH (10% DMSO solution, dissolved in normal saline) is a solvent for PA-9 and the compound 3d.

What does the source list for C=CCOc1ccc(C2CC(=O)Nc3nc(N)[nH]c(=O)c32)cc1OC (centres unmarked) [PA-8]?
Compound 48/80-induced itch behavior [1]: almost completely suppressed; CREB phosphorylation by PACAP (1 nM) (mouse VPAC1 receptor): did not suppress CREB phosphorylation; 5-HT-induced itch behavior (bite, lick or scratch the injected site, action time) [2]: almost completely suppressed; itch behavior induced by application of imiquimod (time spent in scratching) (psoriasis mouse model): significantly suppressed; biting, licking or scratching behavior induced by PACAP (100 pmol) intradermal administration [3]: suppressed in a dose-dependent manner
